Measured values reported in US11234977B2, “Fused tricyclic pyrazolo-dihydropyrazinyl-pyridone compounds as antivirals” (priority 2017, dated 2022).

Test system: HBsAg secretion, HepG2-Clone42 cells (Tet-inducible HBV-expressing cell line, HBV ayw strain)
Assay: HBsAg assay (HBsAg ELISA of secreted HBV sAg in HepG2-Clone42 cells)
Type: cell-based
Conditions: Hepatitis B virus, read-out: HBsAg EC50
Protocol: HepG2-Clone42, a Tet-inducible HBV-expressing cell line with a stably integrated 1.3mer copy of the HBV ayw strain, was generated based on the Tet-inducible HepAD38 cell line with slight modifications. Ladner S K, et al., Antimicrobial Agents and Chemotherapy. 41(8):1715-1720 (1997). HepG2-Clone42 cells were cultured in DMEM/F-12+ Glutamax™ (Life Technologies, Carlsbad, Calif., USA), supplemented with 10% fetal bovine serum (Life Technologies), G-418 (Corning, Manassas, Va., USA) at a final concentration of 0.5 mg/mL, and 5 μg/mL Doxycycline (Sigma, St. Louis, Mo., USA) and maintained in 5% CO2 at 37° C.
HepG2-Clone42 cells were seeded into black clear-bottom 96-well plates at a concentration of 6.0×10^4 cells/well. 24 hours post-seeding, the cells were treated with 200 μl/well of media containing five-fold serial dilutions of compounds in DMSO. DMSO alone was used as the no drug control. The final DMSO concentration in all wells was 0.5%.
The HBsAg ELISA kit (Alpha Diagnostic International, San Antonio, Tex., USE, Catalog #4110) was used to determine the level (semi-quantitative) of secreted HBV sAg. The HBSAg ELISA assay was performed following the manufacturer's protocol as described.
Step 1. Pipet 100 μL each of compound or DMSO treated samples into HBsAg ELISA plates. Seal plates and incubate at room temp for 60 minutes.
Step 2. Aspirate samples and wash three times with Wash Buffer. Dispense 100 μL of antibody-HRP conjugate to each well. Incubate at room temp for 30 minutes.
Step 3. Aspirate samples and wash three times with Wash Buffer. Add 100 μL of TMB Substrate to all wells and incubate 15 minutes at room temp.
Step 4. Dispense 100 μL of Stop Solution to each well. Measure absorbance of ELISA plate at 450 nm.
Dose-response curves were generated and the EC50 value was defined as the compound concentration at which HBsAg secretion was reduced 50% compared to the DMSO control.
EC50 values were determined as follows:
Determine the percent of HBsAg secretion inhibition. Calculate the percent inhibition on of HBsAg secretion inhibition using the following equation: (XC-MB)/(MDMB) • where XC is the absorbance signal from compound-treated well; MB is average absorbance signal (background signal) for column 12 (no cells+HBsAg ELISA sample buffer) and MD is average absorbance signal from DMSO-treated wells. Then calculate EC50 values by non-linear regression using a four parameter curve logistic equation. The curve fit model employed is XLFit Dose Response One Site Model 204: y=(A+((B−A)/(1+(10^((C−x)*D))))) where A is the minimum y value, B is the maximum y value, C is the log EC50 value, and D is the slope factor. +++means<1 nm; ++means≥1 nm and ≤10 nm and +means>10 nm.

Compared with `COCCCOc1nn2c(c1Cl)-c1cc(=O)c(C(=O)O)cn1[C@H](C(C)(C)C)C2` [Compound 1.1, (R)-6-(tert-butyl)-1-chloro-2-(3-methoxypropoxy)-10-oxo-6,10-dihydro-5H-pyrazolo[1,5-a]pyrido[2,1-c]pyrazine-9-carboxylic acid], `COCCCOc1nn2c(c1Br)-c1cc(=O)c(C(=O)O)cn1[C@H](C(C)(C)C)C2` [Compound 1.3, (R)-1-bromo-6-(tert-butyl)-2-(3-methoxypropoxy)-10-oxo-6,10-dihydro-5H-pyrazolo[1,5-a]pyrido[2,1-c]pyrazine-9-carboxylic acid] is higher in EC50: < 1 nM for the first, 1 to 10 nM for the second. The first is the more potent here.

`COCCCOc1cc2n(n1)C[C@@H](C(C)(C)C)n1cc(C(=O)O)c(=O)cc1-2` [Compound 1.2, (R)-6-(tert-butyl)-2-(3-methoxypropoxy)-10-oxo-6,10-dihydro-5H-pyrazolo[1,5-a]pyrido[2,1-c]pyrazine-9-carboxylic acid] and `CC(C)c1cc2n(n1)CC(C(C)(C)C)n1cc(C(=O)O)c(=O)cc1-2` (centres unmarked) [Compound 2.1, 6-(tert-butyl)-2-isopropyl-10-oxo-6,10-dihydro-5H-pyrazolo[1,5-a]pyrido[2,1-c]pyrazine-9-carboxylic acid] cannot be ordered by EC50: > 10 nM for the first, > 10 nM for the second.

First: CC(C)(C)[C@@H]1Cn2nc(-c3ccccc3)c(Cl)c2-c2cc(=O)c(C(=O)O)cn21 [Compound 3.1, (R)-6-(tert-butyl)-1-chloro-10-oxo-2-phenyl-5,6-dihydro-10H-pyrazolo[1,5-a]pyrido[2,1-c]pyrazine-9-carboxylic acid]
Second: CC(C)[C@@H]1Cn2nc(-c3ccccc3)c(Cl)c2-c2cc(=O)c(C(=O)O)cn21 [Compound 3.4, (R)-1-chloro-6-isopropyl-10-oxo-2-phenyl-6,10-dihydro-5H-pyrazolo[1,5-a]pyrido[2,1-c]pyrazine-9-carboxylic acid]
The EC50 of the first is lower: < 1 nM for the first, > 10 nM for the second. The first is the more potent here.

`COc1ccccc1-c1nn2c(c1Cl)-c1cc(=O)c(C(=O)O)cn1[C@H](C(C)(C)C)C2` [Compound 3.2, (R)-6-(tert-butyl)-1-chloro-2-(2-methoxyphenyl)-10-oxo-5,6-dihydro-10H-pyrazolo[1,5-a]pyrido[2,1-c]pyrazine-9-carboxylic acid] and `CC(C)[C@@H]1Cn2nc(-c3ccccc3)cc2-c2cc(=O)c(C(=O)O)cn21` [Compound 3.3, (R)-6-isopropyl-10-oxo-2-phenyl-5,6-dihydro-10H-pyrazolo[1,5-a]pyrido[2,1-c]pyrazine-9-carboxylic acid] cannot be ordered by EC50: > 10 nM for the first, > 10 nM for the second.
